Data: US8796456B2, “Naphthalene diimide compounds” (University College London, priority 2007, dated 2014)

Legend:
telomeric G-quadruplex = assay type: binding, human; details: for FRET-Q ΔTm(0.5 μM): telomeric G-quadruplex sequence, 0.5 μM compound, maximum error ± 1° C.
Protocol: (§1) 50 μL of annealed DNA and 50 μL of compound per well were put into 96-well plates and processed in a DNA Engine Opticon (MJ Research). […] The raw data were imported into Origin 7.0 (OriginLab Corp.) and the graphs smoothed using a 10-point running average and subsequently normalised. For the determination of the melting temperature, the first derivative of the smoothed melting curve was calculated.
(§2) The initial assessment of the DNA stabilisation ability of the compounds was done using FRET. Four different DNA sequences were used—a model for the human telomeric G-quadruplex, a self-complementary duplex DNA hairpin and two sequences that are present in the promoter region of the CKIT gene. A FRET competition experiment was also run in which affinity for the telomeric G-quadruplex sequence was evaluated in presence of increasing concentrations of duplex DNA. These experiments allowed us to assess the selectivity of the ligands between quadruplex and duplex DNA.

telomerase = assay: Modified TRAP assay (telomerase inhibition); assay type: biochemical
Protocol: The TRAP assay was carried out in three steps with an initial primer elongation step by telomerase, a subsequent removal of the primer bound ligand and a final PCR amplification of the telomerase products. […] The PCR master mix was added to tubes containing freshly prepared compounds at various concentrations and to the negative control containing no drug. The initial elongation step was carried out for 10 min at 30° C., followed by a 94° C. for 5 min and a final maintenance of the mixture at 20° C. To purify the elongated product and to remove the bound ligands the QIAquick nucleotide purification kit (Qiagen) was used according to manufacturer's instructions. […] This was substituted with PCR-grade water in our experiments. The purified extended samples were then subject to PCR amplification. […] Fluorescence from drug samples were normalised against positive control containing protein only. All samples were corrected for background by subtracting the fluorescence reading of negative controls.

duplex DNA = assay: FRET melting assay, duplex DNA; assay type: binding; details: duplex sequence, 0.5 μM compound, maximum error ± 1° C.
Protocol: 50 μL of annealed DNA and 50 μL of compound per well were put into 96-well plates and processed in a DNA Engine Opticon (MJ Research). […] The raw data were imported into Origin 7.0 (OriginLab Corp.) and the graphs smoothed using a 10-point running average and subsequently normalised. For the determination of the melting temperature, the first derivative of the smoothed melting curve was calculated. The difference between the melting temperature at 0.5 μM of the compound and the melting temperature for the blank (ΔTm(0.5 μM)) was used for comparison.

HGC-27 cells (gastric) = assay: SRB toxicity assay, HGC-27; assay type: cell-based; details: Homo sapiens, HGC-27, 96 h
Protocol: (§3) Human cancer cell lines, breast (MCF7), lung (A549), colon (HT-29), gastric (HGC-27) and normal human lung fibroblast lines (WI-38) were purchased from American Type Cell Culture (ATCC). The GIST882 line was a gift from Dr Jonathan Fletcher. All cell lines except HGC27 and WI38 were maintained in Dulbecco's Modified Eagles Media containing 10% foetal bovine serum (Invitrogen, UK), […] hydrocortisone (Acros Chemicals, Loughborough, UK), 2 mM L-glutamine (Invitrogen, Netherlands), and non-essential amino-acids (Invitrogen, Netherlands), and incubated at 37° C., 5% CO2. The WI38 and HGC27 lines were maintained in minimum essential medium, prepared as above. All cell lines were routinely passaged at a ratio of 1:6.
(§4) Short-term growth inhibition was measured using the SRB assay as described previously. Briefly, cells were seeded (4000 cells/wells) into the wells of 96 well-plates in appropriate medium and incubated overnight to allow the cells to attach. Subsequently cells were exposed to freshly-made solutions of drugs and incubated for a further 96 h. Following this the cells were fixed with ice cold trichlo-acetic acid (TCA) (10%, w/v) for 30 min and stained with 0.4% SRB dissolved in 1% acetic acid for 15 min. All incubations were carried out at room temperature.

ckit2 G-quadruplex = assay: FRET melting assay, ckit2 G-quadruplex; assay type: binding; details: ckit2 G-quadruplex sequence, 0.5 μM compound, maximum error ± 1° C.
Protocol: as §1, §2

HT-29 cells (colon) = assay: SRB toxicity assay, HT-29; assay type: cell-based; details: Homo sapiens, 96 h exposure, HT-29D
Protocol: as §3, §4

ckit1 G-quadruplex = assay: FRET melting assay, ckit1 G-quadruplex; assay type: binding; details: ckit1 G-quadruplex sequence, 0.5 μM compound, maximum error ± 1° C.
Protocol: as §1, §2

GIST882 cells = assay: SRB toxicity assay, GIST882; assay type: cell-based; details: Homo sapiens, 96 h exposure
Protocol: as §3, §4

MCF7 cells = assay: Senescence β-galactosidase staining in MCF7 cells; assay type: cell-based, human; details: at 70 nM
Protocol: Senescence detection and quantification experiments were carried out using a commercially available kit (Senescence β-galactosidase staining kit, Cell Signalling Technology, MA, USA). 1×10^5 cells were seeded in a 35 mm well of a 6-well plate (Nunc, Denmark) in 2 ml of medium and compound to test. The cells were incubated for 24 hours. The medium was then removed and the cells were washed with PBS (1×2 ml). The cells were fixed by treating them with 1 ml of fixative solution (2% formaldehyde and 2% glutaraldehyde in PBS) for 15 minutes at RT. The fixative solution was then removed and the wells washed with PBS (2×2 ml). Freshly prepared staining solution (a mixture of 930 μL of 40 mM citric acid/sodium phosphate (pH 6.0), 0.15 M NaCl and 2 mM MgCl2, 10 μL of 500 mM potassium ferrocyanide, 10 μL of 500 mM potassium ferricyanide and 50 μL of 20 mg/ml 5-bromo-4-chloro-3-indolyl-μD-galactopyranoside in DMF) (1 ml) was added and the cells were incubated overnight. The senescent cells, detected by their blue pigmentation, were quantified under a light microscope.
Senescence phenotype was investigated in MCF7 cells treated for 1 week with sub-cytotoxic concentrations of a selection of compounds.

Compound	concentration required to increase the melting temperature by 35° C. (telomeric G-quadruplex; G-quadruplex DNA, FRET) [µM]	EC50 (telomerase) [nM]	FRET-d ΔTm(0.5 μM) (duplex DNA) [°C]	IC50 (HGC-27 cells (gastric)) [nM]	FRET-Q ΔTm(0.5 μM) (telomeric G-quadruplex) [°C]	FRET-ckit2 ΔTm(0.5 μM) (ckit2 G-quadruplex) [°C]	IC50 (HT-29 cells (colon)) [nM]	FRET-ckit1 ΔTm(0.5 μM) (ckit1 G-quadruplex) [°C]	IC50 (GIST882 cells) [nM]	Senescence (% of cells) after 1 week (MCF7) (MCF7 cells)
CN(C)c1ccc(Nc2c3ccc(NC(=O)CCN4CCCC4)cc3nc3cc(NC(=O)CCN4CCCC4)ccc23)cc1 [BRACO19]	2.5	–	–	–	–	–	–	–	–	–
CN(C)CCCNc1cc2c3c(c(NCCCN(C)C)cc4c3c1C(=O)N(CCCN(C)C)C4=O)C(=O)N(CCCN(C)C)C2=O [Compound 12]	–	25000 ± 2500	4.5	510	33.2	36.5	63	29.75	1300	35.0 ± 3 (at 70 nM) % of cells
CN(C)CCCNc1cc2c3c(ccc4c3c1C(=O)N(CCCN(C)C)C4=O)C(=O)N(CCCN(C)C)C2=O [Compound 13]	–	17000 ± 1100	12.5	–	26.5	29	–	23.5	–	–
CN(C)CCCN1C(=O)c2ccc3c4c(ccc(c24)C1=O)C(=O)N(CCCN(C)C)C3=O [Compound 32, reference compound]	–	–	2.7	–	5.2	7.75	–	2.5	–	–
CN(C)CCN1C(=O)c2ccc3c4c(ccc(c24)C1=O)C(=O)N(CCN(C)C)C3=O [Compound 33, N,N′-bis(3-(dimethylamino)ethylamino)-1,4,5,8-naphthalenetetracarboxylic acid diimide, reference compound]	–	–	1	–	3.2	7.25	–	1.25	–	–
